# Values of other authors, collected in patent US20050272755A1, “Method for treating abnormal cell growth” (priority 2004, published 2005).
# Counter-ions that a name gives are not always drawn. Like-named read-outs stand apart in the source and are kept apart here.
# How the values were obtained:
# [1] = tested on: colorectal cancer; conditions: colorectal cancer patients resistant to 5-FU
# [2] = tested on: metastatic colorectal cancer
SMILES,survival compared with 5-FU/FA best infusional regimens [1],survival compared with supportive care only [1],median survival ([2]; European trial) [months],median survival ([2]; US trial) [months],grade 3-4 toxicity: diarrhea ([2]; capecitabine treatment arms) [%],grade 3-4 toxicity: hand-foot syndrome ([2]; capecitabine treatment arms) [%],"Overall response rate ([2]; first of the two phase III studies ('respectively'; Europe N=602 named first), capecitabine 2500 mg/m^2/day for 14 days every 3 weeks) [%]",Overall response rate ([2]; second of the two phase III studies ('respectively'; US N=605 named second)) [%]
"CCc1c2c(nc3ccc(OC(=O)N4CCC(N5CCCCC5)CC4)cc13)-c1cc3c(c(=O)n1C2)COC(=O)[C@]3(O)CC [CPT-11, irinotecan hydrochloride trihydrate]",longer survival,longer survival,–,–,–,–,–,–
"CCCCCOC(=O)Nc1nc(=O)n([C@@H]2O[C@H](C)[C@@H](O)[C@H]2O)cc1F [capecitabine, 5′-deoxy-5-fluoro-N-[(pentyloxy)-carbonyl]-cytidine]",–,–,13.3,12.5,14,17,21,21
